Assay results reported in PubChem BioAssay (NCI).
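Method: 48-hour compound exposure of cells in 96-well plates, five concentrations, linear interpolation of endpoints. TGI denotes the concentration required for complete inhibition of growth.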

Assays:
Test in all cases: inhibition of tumour cell growth, NCI panel, 48 h
786-0 renal = tested on: 786-0 renal
A498 renal = tested on: A498 renal
A549 NSCLC = tested on: A549 NSCLC
ACHN renal = tested on: ACHN renal
BT-549 breast = tested on: BT-549 breast
CAKI-1 renal = tested on: CAKI-1 renal
CCRF-CEM leukemia = tested on: CCRF-CEM leukemia
COLO 205 colon = tested on: COLO 205 colon
DU-145 prostate = tested on: DU-145 prostate
HCC-2998 colon = tested on: HCC-2998 colon
HCT-116 colon = tested on: HCT-116 colon
HCT-15 colon = tested on: HCT-15 colon
HL-60(TB) leukemia = tested on: HL-60(TB) leukemia
HOP-62 NSCLC = tested on: HOP-62 NSCLC
HOP-92 NSCLC = tested on: HOP-92 NSCLC
HS 578T breast = tested on: HS 578T breast
HT29 colon = tested on: HT29 colon
IGROV1 ovarian = tested on: IGROV1 ovarian
KM12 colon = tested on: KM12 colon
LOX IMVI melanoma = tested on: LOX IMVI melanoma
M14 melanoma = tested on: M14 melanoma
MDA-MB-231 breast = tested on: MDA-MB-231 breast
MDA-MB-435 = tested on: MDA-MB-435
MDA-N = tested on: MDA-N
MOLT-4 leukemia = tested on: MOLT-4 leukemia
NCI-H226 lung = tested on: NCI-H226 lung
NCI-H23 lung = tested on: NCI-H23 lung
NCI-H460 lung = tested on: NCI-H460 lung
NCI/ADR-RES ovarian = tested on: NCI/ADR-RES ovarian
OVCAR-3 ovarian = tested on: OVCAR-3 ovarian
OVCAR-4 ovarian = tested on: OVCAR-4 ovarian
OVCAR-5 ovarian = tested on: OVCAR-5 ovarian
OVCAR-8 ovarian = tested on: OVCAR-8 ovarian
PC-3 prostate = tested on: PC-3 prostate
RPMI-8226 leukemia = tested on: RPMI-8226 leukemia
RXF 393 renal = tested on: RXF 393 renal
SF-268 CNS = tested on: SF-268 CNS
SK-MEL-2 melanoma = tested on: SK-MEL-2 melanoma
SK-MEL-28 melanoma = tested on: SK-MEL-28 melanoma
SK-MEL-5 melanoma = tested on: SK-MEL-5 melanoma
SK-OV-3 ovarian = tested on: SK-OV-3 ovarian
SN12C renal = tested on: SN12C renal
SNB-19 CNS = tested on: SNB-19 CNS
SNB-75 CNS = tested on: SNB-75 CNS
SR leukemia = tested on: SR leukemia
SW-620 colon = tested on: SW-620 colon
T-47D breast = tested on: T-47D breast
U251 CNS = tested on: U251 CNS
UACC-257 melanoma = tested on: UACC-257 melanoma
UACC-62 melanoma = tested on: UACC-62 melanoma
EKVX NSCLC = tested on: EKVX NSCLC
K-562 leukemia = tested on: K-562 leukemia
MALME-3M melanoma = tested on: MALME-3M melanoma
MCF7 breast = tested on: MCF7 breast
NCI-H522 lung = tested on: NCI-H522 lung
SF-295 CNS = tested on: SF-295 CNS
SF-539 CNS = tested on: SF-539 CNS
TK-10 renal = tested on: TK-10 renal
UO-31 renal = tested on: UO-31 renal

Measured: TGI

N=c1oc2ccc3ccccc3c2cc1C(N)=O
54.6 µM: HS 578T breast
90.6 µM: HCC-2998 colon
49.4 µM: SK-MEL-2 melanoma
70.8 µM: IGROV1 ovarian
63 µM: KM12 colon
99.7 µM: T-47D breast
not listed: EKVX NSCLC | K-562 leukemia | MALME-3M melanoma | MCF7 breast | NCI-H522 lung | SF-295 CNS | SF-539 CNS | TK-10 renal | UO-31 renal
> 100 µM: all other assays above

Cc1cccc2c1[nH]c1[nH]c(=O)[nH]c(=O)c12
85.5 µM: SNB-75 CNS
not listed: HCC-2998 colon | NCI-H460 lung | PC-3 prostate | SK-MEL-28 melanoma | U251 CNS
> 100 µM: all other assays above

CCCCS(=O)CCC(N)C(=O)O (stereo unspecified)
not listed: HOP-92 NSCLC | LOX IMVI melanoma | MDA-MB-435 | RPMI-8226 leukemia | SK-MEL-2 melanoma
> 100 µM: all other assays above

CCOC(=O)c1c(CN2CCNCC2)nc2ccccc2c1-c1ccccc1
23.7 µM: HCT-116 colon
31.8 µM: OVCAR-3 ovarian
29 µM: NCI-H522 lung | SF-295 CNS
27.2 µM: K-562 leukemia
34.9 µM: SW-620 colon
3.63 µM: HCC-2998 colon
28.5 µM: MDA-MB-435 | SK-MEL-5 melanoma
33.1 µM: A549 NSCLC | OVCAR-4 ovarian
34.4 µM: NCI/ADR-RES ovarian
33.6 µM: SNB-19 CNS
27.3 µM: PC-3 prostate | TK-10 renal
31 µM: HOP-62 NSCLC
32.8 µM: HCT-15 colon
29.3 µM: EKVX NSCLC | MDA-MB-231 breast | SK-MEL-2 melanoma
31.9 µM: BT-549 breast
31.1 µM: OVCAR-5 ovarian
30.1 µM: SK-OV-3 ovarian
21.7 µM: UO-31 renal
28.1 µM: MCF7 breast
25.1 µM: SK-MEL-28 melanoma
32.5 µM: RPMI-8226 leukemia
31.3 µM: DU-145 prostate
38.2 µM: CCRF-CEM leukemia
34.8 µM: SF-539 CNS
22 µM: MALME-3M melanoma
27.5 µM: U251 CNS
31.6 µM: LOX IMVI melanoma
28.2 µM: M14 melanoma | SN12C renal | UACC-62 melanoma
23.3 µM: MDA-N
28.3 µM: A498 renal
27.8 µM: SF-268 CNS
25.7 µM: CAKI-1 renal
17.8 µM: HT29 colon
30.4 µM: ACHN renal
30 µM: T-47D breast
30.6 µM: HL-60(TB) leukemia | OVCAR-8 ovarian
25.3 µM: 786-0 renal
15.7 µM: UACC-257 melanoma
36 µM: NCI-H23 lung
20.5 µM: SNB-75 CNS
17.7 µM: HOP-92 NSCLC
29.2 µM: IGROV1 ovarian
35.8 µM: COLO 205 colon
37.9 µM: NCI-H226 lung
35.9 µM: HS 578T breast
28.4 µM: NCI-H460 lung
13.8 µM: RXF 393 renal
31.2 µM: KM12 colon
25 µM: MOLT-4 leukemia

COc1ccc(/C=c2\[nH]c3nc(=O)c(N4CCOCC4)c(N)n3c2=O)cc1
64.5 µM: SNB-75 CNS
not listed: BT-549 breast | HOP-62 NSCLC | NCI-H460 lung | OVCAR-3 ovarian | PC-3 prostate | SK-MEL-2 melanoma | UACC-62 melanoma
> 100 µM: all other assays above

Cc1ccc(C(=O)N/N=C(\N=Nc2cccc(Cl)c2)c2ccc(N(CCC#N)CCC#N)cc2C)cc1
not listed: HS 578T breast | SF-268 CNS
> 100 µM: all other assays above

Nc1ncnc2c1ncn2C1CCC(COS(N)(=O)=O)C1 (stereo unspecified)
not listed: A498 renal | BT-549 breast | NCI-H522 lung
> 100 µM: all other assays above
